In patent EP2308983B1, “Cytochrome P450 from Rhizopus oryzae and uses thereof” (Univerza v Ljubljani, priority 2009, dated 2011):

Tests used:
CYP509C12 [1] = assay: Steroid hydroxylation assay of recombinant S. pombe strain SpoC12 expressing CYP509C12 (whole-cell biotransformation, HPLC and LC/MS); conditions: for efficiency of total steroid hydroxylation: 28 °C
Method: S. pombe cells, grown as described in the previous section, were washed with EMM, centrifuged (4000 × g, 5 min, 4 °C) and suspended in 10 mL of fresh medium to a final density of 10^8 cells mL^-1. […] 500 µL of SpoC12 yeast culture was taken after different time periods and the steroids were extracted twice with chloroform, evaporated, solved in acetonitrile, and analyzed by HPLC. The steroid extracts from whole cell cultures growing for 24 h were analyzed by LC/MS.
Reverse phase HPLC using an isocratic solvent system of acetonitrile:H2O 60:40 (v/v) as mobile phase, flow rate […], was carried out on a WellChrom system (Knauer, Berlin, Germany) composed of an auto-sampler AS-2050 plus, Mini-Star K-500 pump, Jet Stream II Plus thermostat, and an UV-detector WellChrom Spectro Photometer K-2600, equipped with a C18 ODS Hypersil 250 x 4.6 mm, 5 µm particle column from Thermo® (Waltham, MA, USA). Steroids were detected at 240 nm and the peak area calculation was done using the EuroChrom 2000 software (Knauer). Steroid standards were used to identify the HPLC peaks and to construct calibration curves. Concentrations of steroids were determined using calibration curves in the range of 0.05 -1 mg mL^-1 of each analyte. […] The peak area of a specific steroid at each time point was assessed relative to the total area of identified steroid peaks.
Mass measurements were run on a hybrid quadruple time of flight mass spectrometer (Q-TOF) provided with an orthogonal Z-spray ESI interface (Waters Micromass, Manchester, UK). Mass spectrometer was interfaced to an ultra performance liquid chromatography (UPLC) system based on a Waters Acquity (Waters, Milford, USA) binary pump with a BEH C-18 column (1.7 µm, 50 mm x 2.1 mm i.d.). The mobile phases consisted of water and acetonitrile with mixture of 0.1 % of formic acid in water. Compressed nitrogen (99.999 %, Messer, Slovenia) was used as both the drying and the nebulizing gas. The nebulizer gas flow rate was set to approximately 20 L h^-1 and the desolvation gas flow rate to 600 L h^-1. A cone voltage of 30 V and a capillary voltage of 2.7 kV were used in positive ion mode. The desolvation temperature was set to 250 °C and the source temperature to 150 °C. The mass resolution of approximately 9500 was used for determination of elemental composition with TOF mass spectrometer. Full width of the peak was measured at half of its maximum height. MS were acquired in centroid mode over an m/z range of 50-1000 in scan time 0.25 s and inter scan time 0.05 s. The data station operating software was Mass Lynx v 4.1 (Micromass, Manchester).

CYP5204A1 = assay: Real time RT PCR of P450 gene expression in fungus exposed to progesterone; format: cell-based, R. oryzae; conditions: 300 µM progesterone, up-regulated within 20 minutes, Wilcoxon's test p value < 0.05
CYP509C12 [2] = assay: as above; format: cell-based, R. oryzae; conditions: 300 µM progesterone, up-regulated within 20 minutes, Wilcoxon's test p value < 0.05
CYP509C10 = conditions: 300 µM progesterone, up-regulated within 20 minutes, Wilcoxon's test p value < 0.05
[3] = SpoC12, 300 µM steroid, 24 h, LC/MS

Q: How did the “efficiency of total steroid hydroxylation” value (shortened to “efficiency”) (CYP509C12 [1]; [3]) turn out when `C[C@]12CC[C@H]3[C@@H](CCC4=CC(=O)CC[C@@]43C)[C@@H]1CC[C@@H]2C(=O)CO` [DOC, 11-deoxycorticosterone] was run?
A: 96%

Q: For `C[C@]12CCC(=O)C=C1CC[C@@H]1[C@@H]2CC[C@@]2(C)[C@H]1CC[C@]2(O)C(=O)CO` [RSS, 11-deoxycortisol], which “efficiency” value (CYP509C12 [1]; [3]) is on record?
A: 30%

Q: What about the “share of 6β-hydroxylated derivative in total hydroxylated products” value (CYP509C12 [1]; [3]) of the same compound?
A: more than half

Q: `CC(=O)[C@H]1CC[C@H]2[C@@H]3CCC4=CC(=O)CC[C@]4(C)[C@H]3CC[C@]12C` [progesterone] was tested. Which “slower rate of progesterone hydroxylation in recombinant fission yeast compared to R. oryzae cultures” value (CYP509C12 [1]; SpoC12 versus R. oryzae cultures) did it give?
A: 10 fold

Q: What about the “transcript amount increase compared to the control” value (from here on “transcript amount increase”) (CYP5204A1) of the same compound?
A: at least 32 fold

Q: And the “transcript amount increase” value (CYP509C12 [2])?
A: at least 32 fold

Q: What about the “transcript amount increase” value (CYP509C10) of the same compound?
A: at least 32 fold

Q: With `C[C@]12CC[C@H]3[C@@H](CCC4=CC(=O)CC[C@@]43C)[C@@H]1CC[C@@H]2O` [testosterone] as the compound, how does the “efficiency” value (CYP509C12 [1]; [3]) read?
A: 73%
